Patent publication US20140235578A1, “METHODS FOR TREATING NEOPLASIA AND FOR IDENTIFYING COMPOSITIONS USEFUL IN SUCH THERAPY” (priority 2007, published 2014)

Assays:
A549 lung carcinoma = assay: Cytotoxicity IC50 against A549 lung carcinoma; assay type: cell-based
[1] = target: purified recombinant human Top2α (Homo sapiens, UniProt P11388); assay: In vitro DNA cleavage assay (Bodley et al.), Top2α; assay type: biochemical; conditions: as stated in Table 2
Description: (§1) Various β-carboline derivatives of compounds of Formula I above were evaluated for their antineoplastic activities and for their ability to preferentially poison Top2 isozymes. These compounds (i.e. those in Table 1 below) were also evaluated for Top2 isozyme-specific poisoning using the in vitro DNA cleavage assay described by Bodley et al. In the studies, purified recombinant human Top2 isozymes were used.
(§2) Reactions were terminated with SDS (final 1%) and digested with proteinase K (100 μg/ml at 50° C. for 1 hr). After adding gel loading solution, the reaction mixtures were analyzed by agarose gel electrophoresis. Gel was dried and exposed to x-ray films for visualization.
(§3) In certain preferred embodiments, the methods for identifying Top2α preferential poisons include using in vitro DNA cleavage assays. In the in vitro DNA cleavage assay, compounds as potential Top2 poisons are tested for their isozyme specificities through this assay using purified recombinant human Top2α (“hTop2α”) and human Top2β (“h Top2β”) isozymes. In this assay, the ability of various Top2 poisons to induce Top2 isozyme-mediated DNA cleavage of ^32P end-labeled linearized plasmid DNA was assessed. Thus, the relative specificity of various Top2 poisons against Top2 isozymes can be qualitatively determined based on the depletion of band intensities and/or the intensities of bands representing the cleavage products.

[2] = target: purified recombinant human Top2β (Homo sapiens, UniProt Q02880); assay: In vitro DNA cleavage assay (Bodley et al.), Top2β; assay type: biochemical; conditions: for Poisoning activity against Top2β: DNA cleavage, purified recombinant human Top2β; for activity against Top2β: as stated in Table 2; on Poisoning activity against Top2β: key: each + represent roughly 10-fold in activity; −: non-detectable
Description: as §1, §2, §3

H9C2 cardiomyocytes [3] = assay: γ-H2AX DNA damage signal by Western blotting; assay type: cell-based; conditions: for effect on doxorubicin-induced γ-H2AX: ROS scavenger 100 μg/ml, added 30 min prior to doxorubicin
Description: Cell lysates were analyzed by Western blotting using anti-γ-H2AX or anti-α-tubulin antibody (for assessing protein loading). […] Cells were then lysed and analyzed by Western blotting using anti-γ-H2AX or anti-α-tubulin antibody. […] Cells were then lysed and analyzed by Western blotting using anti-γ-H2AX or anti-α-tubulin antibody.
(§4) Vitamin C and NAC were added 30 min prior to doxorubicin. Cell lysates were then analyzed by Western blotting using anti-γ-H2AX or anti-α-tubulin antibody. […] Cell lysates were then analyzed by Western blotting (upper panel) using anti-γ-H2AX or anti-α-tubulin antibody. Quantification of γ-H2AX signals is shown in the lower panel. C, H9C2 cells were treated with 0.1% DMSO (labeled DMSO), bortezomib (1 μM) or MG132 (4 μM) for 30 min, followed by co-treatment with either 0.1% DMSO (labeled control) or 0.5 μM doxorubicin (labeled Doxo) for 1.5 hrs. Neutral comet assay was then performed as described in Materials and Methods. The average comet tail moments were plotted as histograms (mean±SEM). *p-value<0.001, t-test.

[4] = test system: Top2β+/− and Top2β−/− MEFs; assay: 4-day MTT assay in transformed MEFs; assay type: cell-based, mouse; conditions: triplicates
Description: (§5) Primary MEFs were isolated from E13.5 Top2β^+/+, Top2β^+/Δ2 and Top2β^Δ2/Δ2 mouse embryos, as described (the Top2β^Δ2 allele contains a deletion in the coding region of the active-site tyrosyl residue). SV40-transformed MEFs were obtained by transformation with pAN2 DNA as described. Cells were maintained in DMEM supplemented with 10% FetalPlex animal serum complex (Gemini Bio-Products), L-glutamine (2 mM), penicillin (100 units/ml), and streptomycin (100 μg/ml) in a 37° C. incubator with 5% CO2. PC12 cells were first clonally selected and then used to generate Top2β-shRNA and control-shRNA knockdown cells. A rat Top2β-shRNA sequence (5′-[…]-3′) was generated based on the 643-bp partial rat TopIki cDNA sequence (GenBank™ accession number D14046). Duplex (5′-[…]-3′) DNA was made and cloned into the LentiLox 3.7 vector (obtained from Dr. van Parijs, MIT). The control-shRNA sequence (5′-[…]-3′) was created by altering three nucleotides in the rat Top2β-shRNA sequence (underlined). The duplex (5′-[…]-3′) DNA was cloned into the LentiLox 3.7 vector. […]
(§6) Top2β contributes minimally to VP-16 cytotoxicity in transformed cells. […] To test if Top2β is also important for VP-16 cytotoxicity, we determined the IC50 of VP-16 in two pairs of transformed Top2β knockout/knockdown cells using 4-day MTT assay (in triplicates). […]

[5] = test system: melanomas in the skin of DMBA-initiated TOP2β+ and skin-specific top2β knockout mice; assay: Carcinogenesis assay using a mouse skin model; assay type: in vivo
Description: Skin-specific top2β knockout mice and their TOP2β^+ controls were derived from the top2β^+/flox2 and top2β^flox2/flox2 lines previously reported. The top2β^flox2 allele contains two loxP sites flanking three Top2β exons that encode a region of TopIIβ containing the active-site tyrosyl residue; this allele expresses wild-type TopIIβ, but is converted to a null allele top2β^Δ2 upon exposure to Cre recombinase. Skin-specific deletion within the floxed top2β allele is achieved by crossing the top2β^flox2 lines with mice expressing Cre recombinase from the keratin 14 promoter (kindly provided by Andrew P. McMahon, Harvard University). The K14-Cre transgenic mouse line expresses Cre in the keratinocytes of the epidermis and the hair follicles during prenatal and postnatal development. Mice with the genotype K14-Cre top2β^flox2/flox2, K14-Cre top2β^+/flox2, top2β^flox2/flox2 and top2β^+/flox2 were generated and used in this study; with the exception of K14-Cre top2β^flox2/flox2 mice, which lack TopIIβ in skin cells, all the others are phenotypically Top2β^+ in all tissues.
Seven-week old skin-specific top2β knockout mice and their TOP2β^+ controls were used in the study. The back of each mouse was shaved two days prior to treatment. The tumor initiator DMBA (1 μmol in 100 μl of DMSO) was applied once in the first week, followed by various treatments (two applications per week) for six groups of animals: Group 1, DMSO (100 μl), 5 applications; Group 2, VP-16 (10 μmol in 100 μl DMSO), 5 applications; Group 3, VP-16 (20 μmol in 200 μl of DMSO), 3 applications; Group 4, the tumor promoter TPA (phorbol 12-tetradecanoate 13-acetate, 17 nmol in 100 μl DMSO), 8 applications; Group 5, VP-16 (5 μmol in 100 μl DMSO), 5 application; Group 6, VP-16 (5 μmol in 100 μl DMSO), 10 applications. Mice were examined every week for appearance of melanomas on their skins. The number of melanomas visibly notable was scored at the end of the 16th week. The average numbers of tumors induced in different treatment groups were compared using Student's t-test.

[6] = test system: control-shRNA-PC12 and Top2β-shRNA-PC12 cells; assay: 4-day MTT assay in PC12 knockdown cells; assay type: cell-based, rat
Description: as §5, §6

Top2β = Top2β protein level by Western blotting in H9C2 cells; assay type: cell-based; conditions: 1 μM co-treatment
Description: (§7) The amount of Top2 cleavage complexes was measured by a band depletion assay as described in Materials and Methods. Cells were lysed either immediately or after reversal of the Top2 cleavage complexes (labeled R+250). Cell lysates were analyzed by Western blotting using anti-Top2α/Top2β or anti-α-tubulin antibody. […] Cells were then lysed and protein levels of Top2α, and Top2β isozymes were determined by Western blotting. […] Cell lysates were immunoblotted using anti-Top2β antibody. D, H9C2 cells were treated with ICRF187 (100 μM) for 4 hrs, followed by treatment with doxorubicin (Doxo, 0, 0.5 and 1 μM) for 1.5 hrs. Neutral comet assay was then performed as described in Materials and Methods. The average comet tail moments were plotted as histograms (mean±SEM). * p-value<0.001, t-test.

H9C2 cardiomyocytes [7] = assay type: cell-based; conditions: bortezomib 1 μM or MG132 4 μM co-treatment, 0.5 μM doxorubicin, p<0.001
Description: as §4
as §7, with “Neutral comet assay was then performed as described in Materials and Methods. The average comet tail moments were plotted as histograms (mean±SEM). * p-value<0.001, t-test.” left out

Chain of purified recombinant human Top2β (Q02880 whole entry): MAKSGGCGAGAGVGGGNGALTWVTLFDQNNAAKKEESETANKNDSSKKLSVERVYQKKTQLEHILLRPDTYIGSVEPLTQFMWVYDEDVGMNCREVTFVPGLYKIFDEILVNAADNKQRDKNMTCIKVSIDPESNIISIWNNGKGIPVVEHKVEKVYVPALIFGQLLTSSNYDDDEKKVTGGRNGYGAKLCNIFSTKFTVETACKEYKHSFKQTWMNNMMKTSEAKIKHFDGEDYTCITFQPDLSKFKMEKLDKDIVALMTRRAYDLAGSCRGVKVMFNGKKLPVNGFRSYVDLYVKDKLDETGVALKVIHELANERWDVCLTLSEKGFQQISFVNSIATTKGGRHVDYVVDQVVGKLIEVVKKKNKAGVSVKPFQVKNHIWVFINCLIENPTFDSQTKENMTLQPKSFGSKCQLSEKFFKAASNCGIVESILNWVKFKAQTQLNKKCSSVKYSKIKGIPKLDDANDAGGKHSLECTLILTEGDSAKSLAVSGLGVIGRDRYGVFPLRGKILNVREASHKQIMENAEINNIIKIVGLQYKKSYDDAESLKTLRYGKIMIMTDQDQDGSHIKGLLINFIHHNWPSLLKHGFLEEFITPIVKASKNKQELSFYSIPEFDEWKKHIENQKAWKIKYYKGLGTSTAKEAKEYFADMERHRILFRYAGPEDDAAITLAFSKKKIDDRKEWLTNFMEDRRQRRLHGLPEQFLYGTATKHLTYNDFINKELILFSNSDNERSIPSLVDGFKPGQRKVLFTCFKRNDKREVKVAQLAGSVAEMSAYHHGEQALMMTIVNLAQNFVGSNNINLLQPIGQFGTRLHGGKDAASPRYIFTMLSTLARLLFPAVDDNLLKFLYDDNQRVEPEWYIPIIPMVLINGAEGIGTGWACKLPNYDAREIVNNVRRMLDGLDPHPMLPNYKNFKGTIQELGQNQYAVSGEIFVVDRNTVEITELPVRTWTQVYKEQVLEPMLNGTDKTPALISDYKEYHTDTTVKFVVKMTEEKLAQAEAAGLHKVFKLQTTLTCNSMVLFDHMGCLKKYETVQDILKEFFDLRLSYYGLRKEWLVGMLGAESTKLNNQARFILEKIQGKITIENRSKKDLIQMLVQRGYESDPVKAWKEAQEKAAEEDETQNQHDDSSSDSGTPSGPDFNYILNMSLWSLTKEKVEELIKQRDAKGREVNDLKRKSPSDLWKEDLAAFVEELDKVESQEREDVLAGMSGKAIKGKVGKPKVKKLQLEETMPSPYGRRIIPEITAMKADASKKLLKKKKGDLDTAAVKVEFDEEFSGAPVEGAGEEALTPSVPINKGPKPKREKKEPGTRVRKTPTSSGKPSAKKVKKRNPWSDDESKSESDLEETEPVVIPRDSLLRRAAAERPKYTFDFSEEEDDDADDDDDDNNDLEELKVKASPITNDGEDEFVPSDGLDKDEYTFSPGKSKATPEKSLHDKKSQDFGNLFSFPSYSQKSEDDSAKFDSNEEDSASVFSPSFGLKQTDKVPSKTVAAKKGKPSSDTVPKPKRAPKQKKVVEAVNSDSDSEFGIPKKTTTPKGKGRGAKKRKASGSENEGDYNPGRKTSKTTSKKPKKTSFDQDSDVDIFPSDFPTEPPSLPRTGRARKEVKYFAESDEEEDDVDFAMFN
Chain of purified recombinant human Top2α (P11388 whole entry): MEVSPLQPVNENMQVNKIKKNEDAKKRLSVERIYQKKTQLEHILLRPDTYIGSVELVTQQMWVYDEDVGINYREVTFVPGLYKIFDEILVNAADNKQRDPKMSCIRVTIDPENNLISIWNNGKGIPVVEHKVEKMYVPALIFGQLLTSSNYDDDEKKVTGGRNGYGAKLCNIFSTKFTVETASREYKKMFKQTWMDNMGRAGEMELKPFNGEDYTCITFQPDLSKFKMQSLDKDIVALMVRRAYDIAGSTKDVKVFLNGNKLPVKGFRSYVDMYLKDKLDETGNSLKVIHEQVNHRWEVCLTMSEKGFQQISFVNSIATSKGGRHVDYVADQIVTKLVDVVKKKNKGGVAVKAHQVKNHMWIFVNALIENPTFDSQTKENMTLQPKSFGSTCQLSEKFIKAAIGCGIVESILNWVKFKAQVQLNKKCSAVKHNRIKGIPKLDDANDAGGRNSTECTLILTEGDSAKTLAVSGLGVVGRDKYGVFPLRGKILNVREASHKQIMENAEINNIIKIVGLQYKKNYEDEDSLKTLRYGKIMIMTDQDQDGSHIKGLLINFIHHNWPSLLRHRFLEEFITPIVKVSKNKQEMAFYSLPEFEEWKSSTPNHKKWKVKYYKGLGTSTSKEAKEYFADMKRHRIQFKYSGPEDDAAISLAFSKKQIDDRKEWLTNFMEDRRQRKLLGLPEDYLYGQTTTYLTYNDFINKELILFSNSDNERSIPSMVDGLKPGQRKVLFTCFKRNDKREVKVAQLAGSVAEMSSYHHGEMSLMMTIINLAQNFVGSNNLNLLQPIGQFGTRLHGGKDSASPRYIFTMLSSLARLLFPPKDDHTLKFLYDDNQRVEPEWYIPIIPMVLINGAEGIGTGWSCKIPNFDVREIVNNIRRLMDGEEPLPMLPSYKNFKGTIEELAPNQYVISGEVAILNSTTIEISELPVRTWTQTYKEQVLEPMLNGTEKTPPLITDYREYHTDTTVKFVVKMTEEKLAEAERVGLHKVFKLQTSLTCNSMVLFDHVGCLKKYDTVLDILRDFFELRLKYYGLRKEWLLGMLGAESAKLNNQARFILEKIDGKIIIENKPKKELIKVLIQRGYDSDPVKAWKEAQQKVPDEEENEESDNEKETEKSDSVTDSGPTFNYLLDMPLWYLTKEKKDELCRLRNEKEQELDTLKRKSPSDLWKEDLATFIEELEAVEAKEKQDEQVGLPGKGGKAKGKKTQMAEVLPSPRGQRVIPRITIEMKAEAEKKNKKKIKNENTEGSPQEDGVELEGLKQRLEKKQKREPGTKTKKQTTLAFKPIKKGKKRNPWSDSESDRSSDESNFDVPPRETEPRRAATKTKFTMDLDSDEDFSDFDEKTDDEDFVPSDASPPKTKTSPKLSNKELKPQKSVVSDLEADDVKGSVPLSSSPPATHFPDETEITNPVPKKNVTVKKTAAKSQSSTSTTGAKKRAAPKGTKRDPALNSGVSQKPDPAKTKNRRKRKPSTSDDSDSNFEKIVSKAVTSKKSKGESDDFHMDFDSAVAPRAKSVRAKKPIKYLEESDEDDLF

Compound	IC50 (A549 lung carcinoma) [µM]	activity against Top2α [1]	Poisoning activity against Top2β [2]	activity against Top2β [2]	other results
2,9-dibenzyl-1-chlorophenyl-9H-pyrido[3,4-b]indol-2-ium [compound 8]	6.1	roughly 20 fold	−	non-detectable	
1,2-dibenzyl-9-fluorobenzyl-9H-pyrido[3,4-b]indol-2-ium [compound 9]	4.2	roughly 20 fold	−	non-detectable	
O=C1O[C@H]([C@@H](O)CO)C(O)=C1O [vitamin C]					effect on doxorubicin-induced γ-H2AX (H9C2 cardiomyocytes [3]): unaffected
CCCCOc1ccc2c3cc[n+](Cc4ccccc4)c(C)c3n(CC(C)C)c2c1 [compound 3, 2-benzyl-7-butoxy-9-isobutyl-1-methyl-9H-pyrido[3,4-b]indol-2-ium]	4.6	roughly 20 fold	−	non-detectable	
CC(=O)N[C@@H](CS)C(=O)O [N-Acetyl Cysteine]					effect on doxorubicin-induced γ-H2AX (H9C2 cardiomyocytes [3]): unaffected
9-butyl-1-chlorobenzyl-2-(3-phenylpropyl)-9H-pyrido[3,4-b]indol-2-ium [compound 10]	< 1.7	roughly 20 fold	+	10 fold	
COc1cc([C@@H]2c3cc4c(cc3[C@@H](O[C@@H]3O[C@@H]5CO[C@@H](C)O[C@H]5[C@H](O)[C@H]3O)[C@H]3COC(=O)[C@H]23)OCO4)cc(OC)c1O [VP16, etoposide]					IC50 ([4]; Top2β+/− MEFs): 0.038 ± 0.007 µM; IC50 ([4]; Top2β−/− MEFs): 0.04 ± 0.006 µM; more melanomas in TOP2β+ mice than in skin-specific Top2β knockout mice ([5]; mouse, in vivo): 2-13 fold; IC50 ([6]; Top2β-shRNA-PC12 cells): 1.6 ± 0.1 µM; IC50 ([6]; control-shRNA-PC12 cells): 1.9 ± 0.1 µM
CC(C)C[C@H](NC(=O)[C@H](Cc1ccccc1)NC(=O)c1cnccn1)B(O)O [bortezomib]					effect on dexrazoxane-induced degradation of Top2β (Top2β): abolished; effect on doxorubicin-induced comet tail moment (H9C2 cardiomyocytes [7]): significantly reduced
CCCCCCCCCCCCCC(=O)O[C@@H]1[C@@H](C)[C@@]2(O)[C@@H](C=C(CO)C[C@]3(O)C(=O)C(C)=C[C@@H]23)[C@@H]2C(C)(C)[C@]12OC(C)=O [TPA, phorbol 12-tetradecanoate 13-acetate]					ratio of average number of melanomas per mouse, Top2β+ versus Top2β− mice ([5]; Group 4, TPA treatment): 1.3; increase in the average number of melanomas per mouse versus DMSO ([5]; TOP2β+ mice, Group 4, 17 nmol × 8 applications): 130%; increase in skin melanoma versus DMSO ([5]; TOP2β− mice, Group 4, 17 nmol × 8 applications): 150%
COc1cccc2c1C(=O)c1c(O)c3c(c(O)c1C2=O)C[C@@](O)(C(=O)CO)C[C@@H]3O[C@H]1C[C@H](N)[C@H](O)[C@H](C)O1 [Doxorubicin, doxorubicin]					induction of γ-H2AX (H9C2 cardiomyocytes [3]; 0.1-10 μM, 1 hr): concentration-dependent up to 1 μM
Cc1c2c(cc[n+]1Cc1ccccc1)c1ccc(OCC(C)C)cc1n2CC(C)C [compound 4, 2-benzyl-7-isobutoxy-9-isobutyl-1-methyl-9H-pyrido[3,4-b]indol-2-ium]	5.3	roughly 20 fold	−	non-detectable	
ICRF-193					effect on doxorubicin (0.5 μM)- and VP-16 (10 μM)-induced γ-H2AX (H9C2 cardiomyocytes [3]): abolished
